Data published in PMC10299727, “Identification and Isolation of α-Glucosidase Inhibitors from Siraitia grosvenorii Roots Using Bio-Affinity Ultrafiltration and Comprehensive Chromatography” (International Journal of Molecular Sciences, 2023).
“And” between values parts separate entries of the source, which are not always exact repeats. Identical values can stand only once. Like-named read-outs stand apart in the source and are kept apart here.

Tests used:
α-glucosidase [1] = target: T1, α-glucosidase (Saccharomyces cerevisiae, UniProt P53341); experiment: Affinity ultrafiltration coupled with HPLC (UF-HPLC), specific binding factor; details: peaks of SGR2 (10 mg/mL) incubated with α-glucosidase; active vs denatured enzyme
T1 construct: purchased Sigma-Aldrich (Shanghai, China) G5003-100UN
T1 sequence (P53341 whole entry): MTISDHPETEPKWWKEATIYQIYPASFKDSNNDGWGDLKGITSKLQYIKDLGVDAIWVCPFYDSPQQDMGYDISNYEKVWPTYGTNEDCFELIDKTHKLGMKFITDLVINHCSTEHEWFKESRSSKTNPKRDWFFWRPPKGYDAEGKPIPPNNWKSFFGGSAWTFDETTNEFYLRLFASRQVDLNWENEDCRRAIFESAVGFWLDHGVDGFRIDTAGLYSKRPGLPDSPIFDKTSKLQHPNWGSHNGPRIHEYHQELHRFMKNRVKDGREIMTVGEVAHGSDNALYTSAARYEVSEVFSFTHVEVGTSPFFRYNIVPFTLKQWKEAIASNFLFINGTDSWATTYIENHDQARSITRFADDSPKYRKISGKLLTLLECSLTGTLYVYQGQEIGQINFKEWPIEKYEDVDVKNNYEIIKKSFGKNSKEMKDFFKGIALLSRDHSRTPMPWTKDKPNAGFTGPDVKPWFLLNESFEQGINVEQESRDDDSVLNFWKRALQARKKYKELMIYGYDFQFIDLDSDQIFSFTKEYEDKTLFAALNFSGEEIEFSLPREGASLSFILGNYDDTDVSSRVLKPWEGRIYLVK
Description: Affinity UF was performed as previously described, with slight modifications. Briefly, a PBS solution of SGR2 (10 mg/mL, 800 μL) was mixed with α-glucosidase (1 U/mL, 400 μL) and incubated at 37 °C for 45 min. Next, the mixture was centrifuged at 10,000 rpm for 10 min using a UF membrane with a 10 kDa molecular weight cutoff, to collect the active component and α-glucosidase complexes. The complexes were washed 3 times with 600 μL of PBS (0.1 M, pH 7.2) to remove unbound compounds. A solution of 70% methanol (200 μL) was added to the residue and incubated at 4 °C for 20 min to release the bound compounds. Then, the solution was collected and concentrated to a dry state. Subsequently, the dry residue was further dissolved with 0.2 mL methanol and subjected to HPLC analysis. As a negative control, α-glucosidase was inactivated at 100 °C in a water bath for 10 min. […] The specific binding factors were calculated according to Equation (2):Specific binding factor (%) = (Aa − Ab)/Ac × 100%(2) where, Aa is the peak area of the experiment with active α-glucosidase, Ab is the peak area of the control group with denatured α-glucosidase, and Ac is the peak area of the extract.

α-glucosidase [2] = target: T1, α-glucosidase; experiment: α-glucosidase inhibitory assay (pNPG substrate, absorbance at 405 nm); type: biochemical
Description: The α-glucosidase inhibitory activity of the S. grosvenorii root extracts was determined using a method mentioned previously, with some modifications to it. Briefly, the sample was dissolved in PBS containing 10% dimethyl sulfoxide. A mixture of the tested sample (50 μL, different concentrations) and α-glucosidase (20 μL, 0.2 U/mL) was placed in a 96-well microplate and incubated at 37 °C for 5 min. Next, 20 μL pNPG (1 mM) was added, and the mixture was further reacted for 30 min at 37 °C and terminated through the addition of […] solution (50 μL, […]). The percentage inhibition of α-glucosidase was determined by measuring the absorbance of the mixture at 405 nm and calculated by Equation (1):Inhibition (%) = [1 − (Ainhibitor − Ablank inhibitor)/(Acontrol − Acontrol blank)] × 100(1) where Ainhibitor, Ablank inhibitor, Acontrol, Acontrol blank are the absorbance values of the potential inhibitor and α-glucosidase, only the potential inhibitor without α-glucosidase, only α-glucosidase, and PBS buffer, respectively.

Molecule | Specific Binding Factors Mean ± SD (n = 3) (α-glucosidase [1]) | inhibition at 1000 µg/mL (α-glucosidase [2]) | IC50 (α-glucosidase [2]; read-out: IC50) | IC50 (α-glucosidase [2]) | Inhibition (%) (α-glucosidase [2]; concentration of 1.0 mg/mL compound)
COc1cc([C@@H]2Oc3c(OC)cc(/C=C/CO)cc3[C@H]2CO)ccc1O [Compound 2, 3,4′-dimethoxy-4,9,9′-trihydroxy-benzofuranolignan-7′-ene] | 1.87 ± 0.77% | 63.43 ± 0.23% | 2275 ± 13.8 µM | – | –
C/C(=C\CCC(C)C1CCC2(C)C3CCC45OCC3(C(=O)CC12C)C4CCC(=O)C5C)C(=O)OC1OC(COC2OC(CO)C(O)C(O)C2O)C(O)C(O)C1O (centres unmarked) [Compound 12, Siraitic acid II B] | 6.65 ± 1.18% | 51.3 ± 0.83% | 1030 ± 36.9 µM | – | –
CC(=O)OC(C)(C)CCC(=O)[C@](C)(O)C1[C@H](O)C[C@@]2(C)[C@@H]3CC=C4[C@@H](CC(O)[C@@H](O)C4(C)C)[C@]3(C)C(=O)C[C@]12C (some centres unmarked) [Compound 13, 23,24-dihydrocucurbitacin F-25-acetate] | 1.31 ± 0.06% | 21.7 ± 0.58% | – | – | –
COc1cc(C[C@@H]2CO[C@@H](c3ccc(O)c(OC)c3)[C@@H]2CO)ccc1O [Compound 1, (-)-lariciresinol] | 4.97 ± 0.15% | 78.2 ± 1.54% | – | 1830 ± 31.3 µM | –
C/C(=C\CCC(C)C1CCC2(C)C3CC=C4C(CCC(OC5OC(COC6OC(CO)C(O)C(O)C6O)C(O)C(O)C5O)C4(C)C)C3(C)C(=O)CC12C)C(=O)OC1OC(COC2OC(CO)C(O)C(O)C2O)C(O)C(O)C1O (centres unmarked) [Compound 8, Siraitic acid IV H] | 0.27 ± 0.18% | 23.4 ± 1.05% | – | – | –
CC(=CCCC(C)C1CCC2(C)C3CCC4=C(C)C(=O)CCC4C3C(=O)CC12C)C(=O)OC1OC(COC2OC(CO)C(O)C(O)C2O)C(O)C(O)C1O (centres unmarked) [Compound 14, Siraitic acid II C] | 17.26% and 17.26 ± 3.14% | 72 ± 2.18% | 430 ± 13.3 µM | – | –
Cucurbitacin B [Compound 15] | 7.98% and 7.98 ± 1.11% | – | – | – | 50.59 ± 0.98%
CC(=O)OC(C)(C)CCC(=O)[C@](C)(O)C1C(O)C[C@@]2(C)[C@@H]3CC=C4[C@@H](CC(=O)[C@@H](O)C4(C)C)[C@]3(C)C(=O)C[C@]12C (some centres unmarked) [Compound 17, Dihydroisocucurbitacin B-25-acetate] | 2.28 ± 0.44% | 23.7 ± 0.33% | – | – | –
CC(=CCCC(C)C1CCC2(C)C3CCC4=C(C)C(=O)CCC4C3(C)C(=O)CC12C)C(=O)OC1OC(COC2OC(CO)C(O)C(O)C2O)C(O)C(O)C1O (centres unmarked) [Compound 9, Siraitic acid II G] | 5.33 ± 2.11% | 53.1 ± 0.99% | 1581 ± 12.5 µM | – | –
CC1=C2CCC3C(C)(C(=O)CC4(C)C(C(C)CC/C=C(\C)C(=O)OC5OC(COC6OC(CO)C(O)C(O)C6O)C(O)C(O)C5O)C(OC5OC(CO)C(O)C(O)C5O)CC34C)C2CCC1=O (centres unmarked) [Compound 4, Siraitic acid III E] | 2.93 ± 0.72% | 36.74 ± 0.36% | – | – | –
CC1=C2CCC3C(C)(C(=O)CC4(C)C(C(C)CC/C=C(\C)C(=O)OC5OC(CO)C(O)C(O)C5O)C(OC5OC(CO)C(O)C(O)C5O)CC34C)C2CCC1=O (centres unmarked) [Compound 6, Siraitic acid IIb E] | 3.91 ± 0.17% | 42.4 ± 0.81% | – | – | –
CC(=O)OC(C)(C)CCC(=O)[C@](C)(O)[C@H]1[C@H](O)C[C@@]2(C)[C@@H]3CC=C4[C@@H](C[C@H](O)C(=O)C4(C)C)[C@]3(C)C(=O)C[C@]12C [Compound 16, 23,24-dihydrocucurbitacin B] | 4.70 ± 0.76% | 27.5 ± 3.8% | – | – | –
C/C(=C\CCC(C)C1CCC2(C)C3CCC45OCC3(C(=O)CC12C)C4CCC(O)C5C)C(=O)OC1OC(COC2OC(CO)C(O)C(O)C2O)C(O)C(O)C1O (centres unmarked) [Compound 11, Siraitic acid II A] | 6.59 ± 0.91% | 50.6 ± 1.23% | 1240 ± 20.5 µM | – | –
CC(=CCCC(C)C1C(O)CC2(C)C3CCC4=C(C)C(=O)CCC4C3C(=O)CC12C)C(=O)OC1OC(COC2OC(CO)C(O)C(O)C2O)C(O)C(O)C1O (centres unmarked) [Compound 7, Siraitic acid II E] | 3.46 ± 1.03% | 58.5 ± 1.19% | 1207 ± 5.49 µM | – | –
